{"source": "patent US9498438B2", "about": "(The University of Liverpool, priority 2011, dated 2016)", "format_in_all_cases": "cell-based", "key": {"[1]": {"test": "ATP cell viability assay (CellTiter-Glo) cytotoxicity", "conditions": "human, THP-1 (monocyte) cells", "quoted_text": "(§1) The same procedure was followed for each individual excipient (23 samples) with concentrations range of 1 μM to 1 M.\n(§2) Prior to starting viability assays, all reagents were made fresh and in accordance to manufacturer's instructions and allowed to equilibrate to room temperature immediately before use. After 24 hours incubation, 96 well plates were removed from the incubator and the plate and its contents allowed too equilibrate to room temperature for approximately 30 minutes. After 30 minutes, 80 μl of media was aspirated from each individual well and 20 μl CellTiter-Glo® Reagent (Promega, UK) was added to the remaining media and cells. The contents were then mixed for 2 minutes on an orbital shaker to induce cell lysis. The plate was then further incubated at room temperature for 10 minutes to stabilise luminescent signal. Luminescence was then measured using a Tecan Genios plate reader (Tecan; Austria)."}, "HIVIIIB in MT4 cells": {"tested_on": "HIVIIIB in MT4 cells", "test": "Inhibition of cultured HIV-IIIB in MT4 cells (MTT assay)", "conditions": "Human immunodeficiency virus 1, 120 h, 70% loaded, 5 days, read-out: IC50 (nM), Table 11", "method": "HIVIIIB and the human T-cell line, MT4, were supplied by the National Institute for Biological Standards and Control (NIBSC), the Centre for AIDS Reagents (CFAR: Hertfordshire, Uk). MT4 cells were grown and routinely maintained in RPMI-1640 (Sigma; Dorest, Uk) supplemented with 10% fetal bovine serum (FBS; Bio-Whittaker, Berkshire, Uk) at 37° C. and 5% CO2 and sub-cultured every 3 days. Cell counts and viability was determined by Trypan Blue exclusion using a disposable plastic haemocytometer (Labtech International Ltd, UK). HIVIIIB was propagated by passage through MT4 cells in RPMI-1640 and 10% FBS for 12 days and a subsequent multiplicity of infection (MOI) was determined by MTT assay.\nMT4 cells were dispensed into 50 ml falcon tubes and centrifuged at 2000 rpm and 4° C. for 5 minutes. The supernatant was aspirated and the resulting pellet resuspended to a cell density of 1×10^5/ml in RPMI 1640 supplemented with 10% FBS and 1 ml of viral isolate (M.O.I 0.001). After further centrifugation for 5 minutes at 2000 rpm, the MT4/HIVIIIB pellet was incubated at 37° C. and 5% CO2 for 2 hours. […]\nFollowing incubation for 5 days of MT4/HIVIIIB with nano formulated EFV at 37° C. and 5% CO2. […] Absorbance was read at 570 nm on a plate reader (Tecan Magellan, Austria)."}, "[2]": {"test": "ATP cell viability assay (CellTiter-Glo) cytotoxicity", "conditions": "human, A-THP-1 (PMA-activated THP-1, macrophage like) cells", "quoted_text": "Cells were then incubated at 37° C. and 5% CO2 for 7 days prior to use to allow differentiation from monocyte to macrophage like cells.\nas §1, §2"}, "[3]": {"test": "ATP cell viability assay (CellTiter-Glo) cytotoxicity", "conditions": "human", "from_the_text": "HepG2 (hepatic) and Caco-2 (intestinal) cells were purchased from American Type Tissue Culture (ATCC; USA) and maintained in Dulbecco's modified eagle's medium (DMEM; Sigma; Dorest, Uk) supplemented with 10% fetal bovine serum (FBS; Bio-Whittaker, Berkshire, Uk) for HepG2 and 15% FBS for Caco-2. CEM (lymphocyte) and THP-1 (monocyte) cells were purchased from European Collection of Cell Culture (ECACC; Porton Down, Uk) and grown in RPMI-1640 (Sigma; Dorest, Uk) supplemented with 10% FBS. All cell lines were incubated at 37° C. and 5% CO2 and for adherent cells (HepG2 and Caco-2) were routinely sub-cultured every 4 days when 95% confluent. Suspension cells (CEM and THP-1) were routinely sub-cultured when a density of 1×10^6 cells/ml was achieved. Cell count and viability was determined by Trypan Blue exclusion assay.\nHepG2, Caco-2, THP-1, CEM and A-THP-1 cells were separately seeded at a density of 2.5×10^4/100 μl in their appropriate media into each well of a 96 well plate (Nunclon™, Denmark) and incubated for 24 hours at 37° C. and 5% CO2. […]\nPrior to starting viability assays, all reagents were made fresh and in accordance to manufacturer's instructions and allowed to equilibrate to room temperature immediately before use. […] Luminescence was then measured using a Tecan Genios plate reader (Tecan; Austria)."}}, "data": [{"smiles": "O=C1Nc2ccc(Cl)cc2[C@@](C#CC2CC2)(C(F)(F)F)O1", "note": "[Aqueous solution, efavirenz]", "values": [{"measurement": "IC50 at 24 h", "setting": "[1]", "value": 29, "unit": "µM"}, {"measurement": "IC50", "setting": "HIVIIIB in MT4 cells", "value": 71, "unit": "nM"}, {"measurement": "IC50 at 24 h", "setting": "[2]", "value": 29, "unit": "µM"}, {"measurement": "IC50 at 24 h", "setting": "[3]; CEM (lymphocyte) cells", "value": 40, "unit": "µM"}, {"measurement": "IC50 at 24 h", "setting": "[3]; HepG2 (hepatic) cells", "value": 33, "unit": "µM"}]}]}
